The text below walks through data of ChEMBL document CHEMBL5108073, “Evolution of Potential Antimitotic Stapled Peptides from Multiple Helical Peptide Stretches of the Tubulin Heterodimer Interface: Helix-Mimicking Stapled Peptide Tubulin Inhibitors” (J Med Chem, 2022).

The source made the active and inactive calls. The calls are words filed in the database; no cut-off is given here. Numbered stars: 1 amine (or outer) side, 2 acyl side, 3 side chain; on linkers, the order of the positions; unused ones are H or OH. Bridge positions count the residues as written; N and C are the ends. Square brackets hold non-standard residues; d marks the D form. Peptide text beside a SMILES is read from it. Nle(6-ylidene) = O=C([C@H](CCCC=[*:3])N[*:1])[*:2]; Phe(4-Br) = N[C@@H](Cc1ccc(Br)cc1)C(=O)O; Phe(4-Cl) = N[C@@H](Cc1ccc(Cl)cc1)C(=O)O; Phe(4-F) = N[C@@H](Cc1ccc(F)cc1)C(=O)O; Phe(4-I) = N[C@@H](Cc1ccc(I)cc1)C(=O)O

Data set [1] concerns MCF7. Kind of data set: Cytotoxicity against human MCF7 cells assessed as reduction in cell viability incubated for 24 hrs by MTT assay. The class given is functional, cell-based. Particulars: MCF7, 24 h.
Data set [2] addresses T1, Tubulin (Homo sapiens) (UniProt P68371+Q9H4B7+P0DPH7+P68366+Q13509+Q71U36+P04350+Q3ZCM7+P07437+P68363+Q9BQE3+Q6PEY2+Q13885+Q9BVA1+Q9BUF5). Kind of data set: Binding affinity to tubulin (unknown origin) assessed as association constant by SPR analysis. It counts as protein-complex assay. For orientation: In SPR one partner is held on a chip, and binding of the other changes the refractive index at the surface.

The target in data set [3] is Tubulin. Description: Binding affinity to tubulin (unknown origin) assessed as binding constant by SPR analysis. The class given is protein-complex assay, Homo sapiens.
Data set [4] is described as follows: Toxicity in C57BL/6J mouse implanted with B16F10 cells assessed as change in body weight at 5 mg/kg, ip administered for 14 days. It counts as organism-based, B16-F10. Particulars: in vivo, 336 h, time 14 day.
For data set [5], the target named is Tubulin. Description: Binding affinity to tubulin (unknown origin) assessed as binding constant by ITC analysis. It counts as protein-complex assay, Homo sapiens. In general terms: Isothermal titration calorimetry measures the heat released or taken up as one component is titrated into another.
In data set [6] the target is Tubulin. Description: Binding affinity to tubulin (unknown origin) assessed as binding constant by tryptophan quenching analysis. It counts as protein-complex assay, Homo sapiens.
In data set [7] the test system is B16-F10. Description: Antitumor activity against mouse B16F10 cells implanted in C57BL/6J mouse assessed as tumor cell damage at 5 mg/kg, ip administered for 14 days by caliper method. It counts as functional, organism-based. Particulars: time 14.0 day.
Data set [8] relates to MCF7. Kind of data set: Induction of apoptosis in human MCF7 cells assessed as necrotic cells by annexin V FITC and propidium iodide staining based flow cytometry (reference value: 0 %). It counts as functional.
The test system of data set [9] is MCF7. Description: Drug uptake in human MCF7 cells at 4 uM incubated for 24 hrs by fluorescence microscopic analysis. It counts as functional, cell-based.
The subject of data set [10] is B16-F10. Description: Antitumor activity against mouse B16F10 cells implanted in C57BL/6J mouse assessed as tumor muscle damage at 5 mg/kg, ip administered for 14 days by caliper method. The class given is functional, organism-based. Particulars: time 14.0 day.
The subject of data set [11] is MCF7. Kind of data set: Antitumor activity in human MCF7 cells cultured as 3D spheroids assessed as decrease in spheroid volume at 4 uM measured up to 7 days by inverted microscopic analysis. Particulars: time <= 7.0 day. It counts as functional, cell-based.
Data set [12] has as its system B16-F10. Kind of data set: Antitumor activity against mouse B16F10 cells implanted in C57BL/6J mouse assessed as blood vessels damage at 5 mg/kg, ip administered for 14 days by caliper method. It counts as functional, organism-based. As to conditions: time 14.0 day.
Data set [13] deals with B16-F10. Description: Antitumor activity against mouse B16-F10 cells implanted in C57BL/6J mouse assessed as reduction in tumor size at 5 mg/kg, ip administered for 14 days by caliper method. It counts as functional, organism-based. Particulars: time 14.0 day.
Data set [14] deals with T1, Tubulin (Homo sapiens). Description: Binding affinity to microtubule in human MCF7 cells at 20 uM after 2 hrs by Hoechst 33258 staining based fluorescence microscopy analysis. The class given is cell-based.
In data set [15] the target is T1, Tubulin (Homo sapiens). Description: Inhibition of tubulin polymerization (unknown origin) at 10 uM by turbidity assay. The class given is protein-complex assay.
Data set [16] can be described thus: Drug uptake in human MCF7 cells at 4 uM incubated for 24 hrs by flow cytometry analysis. It counts as ADME, cell-based. Particulars: mcf7, 24 h. (In flow cytometry, cells or beads pass a laser one at a time.)
For data set [17], the system named is MCF7. Kind of data set: Induction of apoptosis in human MCF7 cells assessed as early apoptotic cells by annexin V FITC and propidium iodide staining based flow cytometry (reference value: 0 %). The class given is functional.
The test system of data set [18] is MCF7. Kind of data set: Induction of cell cycle arrest in human MCF7 cells assessed as accumulation of cells at G2/M phase. It counts as functional, cell-based.
Data set [19] relates to MCF7. Description: Induction of apoptosis in human MCF7 cells assessed as upregulation of p21 protein expression by Western blot analysis. The class given is functional, cell-based.
In data set [20] the test system is MCF7. Kind of data set: Induction of apoptosis in human MCF7 cells assessed as late apoptotic cells by annexin V FITC and propidium iodide staining based flow cytometry (reference value: 0 %). It counts as functional.
Data set [21] deals with T1, Tubulin (Homo sapiens). Description: Inhibition of tubulin polymerization (unknown origin) at 10 uM by DAPI staining based assay. It counts as protein-complex assay.
For data set [22], the system named is MCF7. Kind of data set: Induction of apoptosis in human MCF7 cells assessed as upregulation of Mad2 protein expression by Western blot analysis. It counts as functional, cell-based.
Data set [23] is described as follows: Metabolic stability in human plasma at 200 uM incubated for 24 hrs by MALDI-MS analysis. It counts as ADME, cell-free.
Data set [24] deals with MCF7. Kind of data set: Induction of apoptosis in human MCF7 cells assessed as viable cells by annexin V FITC and propidium iodide staining based flow cytometry (reference value: 100 %). It counts as functional.
Data set [25] relates to MCF7. Kind of data set: Induction of apoptosis in human MCF7 cells assessed as upregulation of BubR1 protein expression by Western blot analysis. The class given is functional, cell-based.
For data set [26], the system named is MCF7. Kind of data set: Induction of apoptosis in human MCF7 cells assessed as upregulation of p53 protein expression by Western blot analysis. The class given is functional, cell-based.
The target of data set [27] is T1, Tubulin (Homo sapiens). Kind of data set: Induction of microtubule depolymerization in human MCF7 cells. It counts as cell-based.

Consider `CC(=O)N[C@@H](Cc1ccccc1)C(=O)N[C@@H](CCCNC(=N)N)C(=O)N[C@@H](CCCNC(=N)N)C(=O)N[C@@H](CCCCN)C(=O)N[C@@H](C)C(=O)N[C@@H](Cc1ccc(Br)cc1)C(=O)N[C@H]1CCC/C=C\CCC[C@@H](C(=O)NCC(=O)O)NC(=O)[C@H](Cc2ccc(O)cc2)NC(=O)[C@H](Cc2c[nH]c3ccccc23)NC(=O)[C@H](Cc2cnc[nH]2)NC1=O` (Ac-FRRKA[Phe(4-Br)][Nle(6-ylidene)]HWY[Nle(6-ylidene)]G-OH; staple (Z) 7-11), for which, in [1], the IC50 was 33.8 µM. Moreover, the Ka in data set [2] is 1.9 10^4/M/s. For the same compound, the Kd in data set [3] was determined as 4 µM.
For `CC(=O)N[C@@H](Cc1ccccc1)C(=O)N[C@@H](CCCNC(=N)N)C(=O)N[C@@H](CCCNC(=N)N)C(=O)N[C@@H](CCCCN)C(=O)N[C@@H](C)C(=O)N[C@@H](Cc1ccc(Cl)cc1)C(=O)N[C@H]1CCC/C=C\CCC[C@@H](C(=O)NCC(=O)O)NC(=O)[C@H](Cc2ccc(O)cc2)NC(=O)[C@H](Cc2c[nH]c3ccccc23)NC(=O)[C@H](Cc2cnc[nH]2)NC1=O` (Ac-FRRKA[Phe(4-Cl)][Nle(6-ylidene)]HWY[Nle(6-ylidene)]G-OH; staple (Z) 7-11), in [1], the IC50 was found to be 18.7 µM. Besides, the Ka in data set [2] was 2.05 10^4/M/s. In addition, the Kd in data set [3] stood at 3.3 µM.
For `CC(=O)N[C@@H](Cc1ccccc1)C(=O)N[C@@H](CCCNC(=N)N)C(=O)N[C@@H](CCCNC(=N)N)C(=O)N[C@@H](CCCCN)C(=O)N[C@@H](C)C(=O)N[C@@H](Cc1ccc(F)cc1)C(=O)N[C@H]1CCC/C=C\CCC[C@@H](C(=O)NCC(=O)O)NC(=O)[C@H](Cc2ccc(O)cc2)NC(=O)[C@H](Cc2c[nH]c3ccccc23)NC(=O)[C@H](Cc2c[nH]cn2)NC1=O` (Ac-FRRKA[Phe(4-F)][Nle(6-ylidene)]HWY[Nle(6-ylidene)]G-OH; staple (Z) 7-11), the Activity entry is given as “Non-Toxic” in [4]; 6.3% in data set [8]; 23.5% in data set [17]; 58% in data set [20]; 12.2% in data set [24]. Moreover, the Ka in [5] is 45200 M⁻¹; in data set [6], 46300 M⁻¹; in [2], 2.14 10^4/M/s. For the same compound, the outcome in data set [7], in [9], in data set [10], in [11], in [12] and in data set [13] was Active. Besides, the result in data set [14], in data set [18], in data set [19], in data set [22], in data set [25] and in [26] was Active. In addition, the result in data set [27] was Active. Also, the IC50 in data set [1] was determined as 3.71 µM. Besides, the inhibition result in [15] and in [21] was “Active” throughout. Also, the Drug uptake result in data set [16] is “Active”. Also, the Stability entry in [23] is given as “Stable”. Also, the Kd in [3] is 3.6 µM.
As to `CC(=O)N[C@@H](Cc1ccccc1)C(=O)N[C@@H](CCCNC(=N)N)C(=O)N[C@@H](CCCNC(=N)N)C(=O)N[C@@H](CCCCN)C(=O)N[C@@H](C)C(=O)N[C@@H](Cc1ccc(I)cc1)C(=O)N[C@H]1CCC/C=C\CCC[C@@H](C(=O)NCC(=O)O)NC(=O)[C@H](Cc2ccc(O)cc2)NC(=O)[C@H](Cc2c[nH]c3ccccc23)NC(=O)[C@H](Cc2cnc[nH]2)NC1=O` (Ac-FRRKA[Phe(4-I)][Nle(6-ylidene)]HWY[Nle(6-ylidene)]G-OH; staple (Z) 7-11), the IC50 in data set [1] worked out at 52.3 µM. Moreover, the Kd in data set [3] was determined as 4.1 µM.
As to `CC(C)C[C@H](NC(=O)[C@H](Cc1ccccc1)NC(=O)[C@H](C)NC(=O)[C@H](CCCCN)NC(=O)[C@H](CCCNC(=N)N)NC(=O)[C@H](CCCNC(=N)N)NC(=O)[C@@H](N)Cc1ccccc1)C(=O)N[C@@H](Cc1c[nH]cn1)C(=O)N[C@@H](Cc1c[nH]c2ccccc12)C(=O)N[C@@H](Cc1ccc(O)cc1)C(=O)N[C@H](C(=O)NCC(=O)O)[C@@H](C)O` (H-FRRKAFLHWYTG-OH), the IC50 in data set [1] came to 272 µM. In addition, the Stability result in data set [23] is on record as “Unstable”.
As to `C[C@H](NC(=O)[C@H](CCCCN)NC(=O)[C@H](CCCNC(=N)N)NC(=O)[C@H](CCCNC(=N)N)NC(=O)[C@@H](N)Cc1ccccc1)C(=O)N[C@@H](Cc1ccccc1)C(=O)N[C@H]1CCC/C=C\CCC[C@@H](C(=O)NCC(=O)O)NC(=O)[C@H](Cc2ccc(O)cc2)NC(=O)[C@H](Cc2c[nH]c3ccccc23)NC(=O)[C@H](Cc2c[nH]cn2)NC1=O` (H-FRRKAF[Nle(6-ylidene)]HWY[Nle(6-ylidene)]G-OH; staple (Z) 7-11), the Ka in data set [5] was 10500 M⁻¹; in data set [2] it was 1.43 10^4/M/s. For the same compound, the IC50 in [1] was 37.2 µM. For the same compound, the Activity in data set [8] is 43.6%; in data set [17], 0.5%; in [20], 24.2%; in [24] it was 31.8%. Also, the result in data set [9], in [18], in data set [19], in [22], in [25] and in data set [26] was Active. For the same compound, the result in data set [27] was Active. Moreover, the Drug uptake result in data set [16] was “Active”. The Stability result in [23] is listed as “Stable”. Besides, the Kd in data set [3] amounted to 7 µM.

The IC50 is the point on the concentration scale where inhibition reaches its midpoint. What is called Kd is the constant that tells how readily two partners part at equilibrium.
